Format in all cases: cell-based
The subject of one assay is HepG2 (liver cancer). Briefly: Antiproliferative activity (CCK-8 cell viability), HepG2. The note with it: Homo sapiens, 72 h, read-out: Antiproliferative activity in cancerous cells, HepG2 (inhibition of cell growth); for inhibition at 3.3 µM: Compound concentration: 3.3 μM; for inhibition at 10 µM: Compound concentration: 10 μM. An outline of the steps:
(§1)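 Growth inhibition graded in bands from percent viability against DMSO vehicle, read as CCK-8 absorbance at 450 nm. Compound tested at 3.3, 10 or 30 μM for 72 h, 37 °C; media contained 10% FBS: DMEM for HepG2/SW480, MEM for HeLa, F-12K for A549.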

Assay [1] concerns B16F10 (malignant melanoma). Briefly: Antiproliferative activity (CCK-8 cell viability), B16F10. Conditions: Mus musculus, 72 h, read-out: Antiproliferative activity in cancerous cells, B16F10 (inhibition of cell growth); for inhibition at 3.3 µM: B16-F10, Compound concentration: 3.3 μM; for inhibition at 10 µM: B16-F10, Compound concentration: 10 μM. An outline of the steps:
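Cell growth inhibition was measured in B16F10 malignant melanoma cells with a Cell Counting Kit-8 viability assay. Cells were maintained in DMEM plus 10% fetal bovine serum, seeded at 2,000-5,000 cells/well in 96-well plates, and treated for 72 h at 37° C. Viability was expressed relative to DMSO-treated vehicle control wells.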

Assay [2] relates to MDA-MB-231 (breast cancer). Briefly: Antiproliferative activity (CCK-8 cell viability), MDA-MB-231. Conditions: Homo sapiens, 72 h, read-out: Antiproliferative activity in cancerous cells, MDA-MB-231 (inhibition of cell growth); for inhibition at 3.3 µM: Compound concentration: 3.3 μM; for inhibition at 10 µM: Compound concentration: 10 μM. The method in brief:
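Growth inhibition of human MDA-MB-231 breast cancer cells was assessed with a Cell Counting Kit-8. Cells cultured in DMEM plus 10% FBS were seeded at 2,000-5,000 cells/well, treated after attachment, and kept 72 h at 37° C. CCK-8 solution (10 μL) was added for 4 h, and absorbance at 450 nm was compared with DMSO-treated controls.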

The next assay relates to HeLa (cervical cancer). Briefly: Antiproliferative activity (CCK-8 cell viability), HeLa. Conditions: Homo sapiens, 72 h, read-out: Antiproliferative activity in cancerous cells, HELA (inhibition of cell growth); for inhibition at 3.3 µM: Compound concentration: 3.3 μM; for inhibition at 10 µM: Compound concentration: 10 μM. The method in brief: as §1
Assay [3] deals with A549 (lung adenocarcinoma). Briefly: Antiproliferative activity (CCK-8 cell viability), A549. Conditions: Homo sapiens, 72 h, read-out: Antiproliferative activity in cancerous cells, A549 (inhibition of cell growth); for inhibition at 3.3 µM: Compound concentration: 3.3 μM; for inhibition at 10 µM: Compound concentration: 10 μM. An outline of the steps: as §1
Assay [4] concerns A431 (epidermoid carcinoma). Briefly: Antiproliferative activity (CCK-8 cell viability), A431. The note with it: Homo sapiens, 72 h, read-out: Antiproliferative activity in cancerous cells, A431 (inhibition of cell growth); for inhibition at 3.3 µM: A-431, Compound concentration: 3.3 μM; for inhibition at 10 µM: A-431, Compound concentration: 10 μM. An outline of the steps: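 This growth inhibition assay used A431 cells maintained in Dulbecco's modified Eagle's medium plus 10% fetal bovine serum. Cells were seeded in 96-well plates, treated with compound for 72 h at 37° C., and then given 10 μL CCK-8 solution. After a further 4 h, absorbance was read at 450 nm.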

The next assay deals with SW480 (colon cancer). Briefly: Antiproliferative activity (CCK-8 cell viability), SW480. Conditions: Homo sapiens, 72 h, read-out: Antiproliferative activity in cancerous cells, SW480 (inhibition of cell growth); for inhibition at 3.3 µM: Compound concentration: 3.3 μM; for inhibition at 10 µM: Compound concentration: 10 μM. The method in brief:
as §1

The source of these data is patent US20260184663A1, “INDENE COMPOUNDS, PHARMACEUTICAL COMPOSITIONS THEREOF, AND THEIR THERAPEUTIC APPLICATIONS” (NucMito Pharmaceuticals co. Ltd., priority 2022, published 2026).

Usually inhibition stands for how much of the control response was suppressed. For `CC1=C(CC(=O)O)c2cc(F)ccc2/C1=C\c1cccc(Oc2ccc(O)c(Cl)c2)c1` [C103, (Z)-2-(1-(3-(3-Chloro-4-hydroxyphenoxy)benzylidene)-5-fluoro-2-methyl-1H-inden-3-yl)acetic acid], the inhibition at 3.3 µM with HepG2 (liver cancer) was under 30%; in assay [1] it was at least 50%; in assay [2] it was under 30%; in the assay with HeLa (cervical cancer), under 30%; in assay [3] it was 30 to 50%; in assay [4] it was 30 to 50%. Further, the inhibition at 3.3 µM in the assay on SW480 (colon cancer) was under 30%. In addition, the inhibition at 10 µM (in the assay with HepG2 (liver cancer); in assay [1]; in assay [2]; with HeLa (cervical cancer); in assay [3]; in assay [4]) was at least 50% throughout. Besides, the inhibition at 10 µM with SW480 (colon cancer) was at least 50%.

Regarding `CC1=C(CC(=O)O)c2cc(Cl)ccc2/C1=C\c1cccc(Oc2ccc(O)cc2)c1` [C104, (Z)-2-(5-Chloro-1-(3-(4-hydroxyphenoxy)benzylidene)-2-methyl-1H-inden-3-yl)acetic acid], the inhibition at 3.3 µM with HepG2 (liver cancer) was under 30%; in assay [1], at least 50%; in assay [2] it was under 30%; in the assay on HeLa (cervical cancer), at least 50%; in assay [3], under 30%; in assay [4] it was at least 50%. Moreover, in the assay on SW480 (colon cancer), the inhibition at 3.3 µM was under 30%. Further, the inhibition at 10 µM (in the assay with HepG2 (liver cancer); in assay [1]; in assay [2]; in the assay with HeLa (cervical cancer); in assay [3]; in assay [4]) was at least 50% each time. Also, in the assay on SW480 (colon cancer), the inhibition at 10 µM was at least 50%.

In the case of `CC1=C(CC(=O)O)c2cc(Cl)ccc2/C1=C\c1cccc(Oc2ccc(C(F)(F)F)cc2)c1` [C105, (Z)-2-(5-Chloro-2-methyl-1-(3-(4-(trifluoromethyl)phenoxy)benzylidene)-1H-inden-3-yl)acetic acid], the inhibition at 3.3 µM (in the assay with HepG2 (liver cancer); in assay [1]; in assay [2]; in the assay with HeLa (cervical cancer); in assay [3]; in assay [4]) was at least 50% each time. In addition, the inhibition at 3.3 µM in the assay with SW480 (colon cancer) was at least 50%. For the same molecule, the inhibition at 10 µM (in the assay on HepG2 (liver cancer); in assay [1]; in assay [2]; with HeLa (cervical cancer); in assay [3]; in assay [4]) was at least 50% in each case. Besides, in the assay on SW480 (colon cancer), the inhibition at 10 µM was at least 50%.

Take `CCc1ccc2c(c1)C(CC(=O)O)=C(C)/C2=C/c1cccc(Oc2ccc(C(F)(F)F)cc2)c1` [C106, (Z)-2-(5-Ethyl-2-methyl-1-(3-(4-(trifluoromethyl)phenoxy)benzylidene)-1H-inden-3-yl)acetic acid]: the inhibition at 3.3 µM in the assay with HepG2 (liver cancer) is at least 50%; in assay [1] it was at least 50%; in assay [2] it was at least 50%; in the assay on HeLa (cervical cancer) it was at least 50%; in assay [3], at least 50%; in assay [4] it was 30 to 50%. For the same molecule, in the assay with SW480 (colon cancer), the inhibition at 3.3 µM was at least 50%. Besides, the inhibition at 10 µM (with HepG2 (liver cancer); in assay [1]; in assay [2]; in the assay with HeLa (cervical cancer); in assay [3]; in assay [4]) was at least 50% throughout. The inhibition at 10 µM in the assay with SW480 (colon cancer) was at least 50%.

For the molecule `COc1cc(Oc2cccc(/C=C3/C(C)=C(CC(=O)O)c4cc(F)ccc43)c2)ccc1Cl` [C107, (Z)-2-(1-(3-(4-Chloro-3-methoxyphenoxy)benzylidene)-5-fluoro-2-methyl-1H-inden-3-yl)acetic acid], the inhibition at 3.3 µM with HepG2 (liver cancer) was under 30%; in assay [1] it was at least 50%; in assay [2], at least 50%; with HeLa (cervical cancer), under 30%; in assay [3], at least 50%; in assay [4], at least 50%. For the same molecule, in the assay on SW480 (colon cancer), the inhibition at 3.3 µM was 30 to 50%. The inhibition at 10 µM (in the assay on HepG2 (liver cancer); in assay [1]; in assay [2]; in the assay with HeLa (cervical cancer); in assay [3]; in assay [4]) was at least 50% throughout. For the same molecule, in the assay with SW480 (colon cancer), the inhibition at 10 µM was at least 50%.

For the molecule `CC1=C(CC(=O)O)c2cc(Br)ccc2/C1=C\c1cccc(Oc2ccc(Cl)cc2)c1` [C108, (Z)-2-(5-Bromo-1-(3-(4-chlorophenoxy)benzylidene)-2-methyl-1H-inden-3-yl)acetic acid], the inhibition at 3.3 µM in the assay with HepG2 (liver cancer) is under 30%; in assay [1], at least 50%; in assay [2] it was at least 50%; in the assay with HeLa (cervical cancer), under 30%; in assay [3] it was under 30%; in assay [4], at least 50%. For the same molecule, the inhibition at 3.3 µM in the assay with SW480 (colon cancer) is under 30%. In addition, the inhibition at 10 µM (in the assay with HepG2 (liver cancer); in assay [1]; in assay [2]; in the assay with HeLa (cervical cancer); in assay [3]; in assay [4]) was at least 50% throughout. In addition, in the assay on SW480 (colon cancer), the inhibition at 10 µM was 30 to 50%.

On to `CC1=C(CC(=O)O)c2cc(Br)ccc2/C1=C\c1cccc(Oc2ccccc2)c1` [C110, (Z)-2-(5-Bromo-2-methyl-1-(3-phenoxybenzylidene)-1H-inden-3-yl)acetic acid], for which the inhibition at 3.3 µM in the assay on HepG2 (liver cancer) was under 30%; in assay [1], at least 50%; in assay [2] it was under 30%; in the assay on HeLa (cervical cancer) it was under 30%; in assay [3] it was under 30%; in assay [4], under 30%. In addition, in the assay with SW480 (colon cancer), the inhibition at 3.3 µM is under 30%. Further, the inhibition at 10 µM (in the assay on HepG2 (liver cancer); in assay [1]; in assay [2]; in the assay on HeLa (cervical cancer); in assay [3]; in assay [4]) was at least 50% each time. For the same molecule, in the assay on SW480 (colon cancer), the inhibition at 10 µM lay within 30 to 50%.
